Where two headings read alike, the source gives them in different places.
Key:
HeLa cells [1] = experiment: Cell death assay (WST-8) in HeLa cells; assay type: cell-based, human
Method: (§1) Human cancer cell lines HeLa (cervical cancer), MIA PaCa-2 (pancreatic cancer), A431 (epidermoid carcinoma), and human embryonic kidney derived cell line HEK293T were cultured in Dulbecco’s Modified Eagle’s Medium (DMEM; Invitrogen) containing 10% fetal bovine serum (FBS), penicillin G (50 units/mL) and streptomycin (50 µg/mL). Human cancer cell lines Panc-1 (pancreatic cancer) and Jurkat (T cell lymphoma) were cultured in RPMI (Gibco) containing 10% FBS, penicillin G (50 units/mL) and streptomycin (50 µg/mL). Human osteosarcoma cell line MG-63, mouse embryonic fibroblast NIH3T3 cells and its transformant NIH3T3/KRAS cells1 were cultured in DMEM (Sigma-Aldrich) containing 10% calf serum, glutamine (0.3 g/L), penicillin G (50 units/mL), and streptomycin (50 µg/mL). All cell lines were incubated at 37 °C in a humidified atmosphere containing 5% CO2.
(§2) The cells were seeded in 96-well plates, cultured overnight, and treated with test compounds for the indicated time. Subsequently, cell viability was measured by the WST-8 assay, using Cell Count Reagent SF (Nacalai Tesque) according to the manufacturer ’s instructions, with the measurement of absorbance set at 450 nm on the ARVO SX 1420 Multilabel Counter (Wallac). […]

[2] = molecular target: T1, His-tagged human recombinant DCTPP1 protein (Homo sapiens, UniProt Q9H773); experiment: DCTPP1 enzyme assay; assay type: biochemical; conditions: at 100 μM
T1 construct: His; purchased ATGen
T1 sequence (Q9H773 1-170): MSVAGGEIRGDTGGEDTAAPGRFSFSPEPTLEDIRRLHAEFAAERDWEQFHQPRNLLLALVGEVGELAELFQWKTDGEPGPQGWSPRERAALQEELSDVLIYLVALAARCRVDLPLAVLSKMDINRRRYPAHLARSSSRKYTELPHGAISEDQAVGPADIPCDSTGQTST
Method: Likewise, the enzymatic activities of ITPA and DCTPP1 were measured using a PPiLight Inorganic Pyrophosphate Assay kit. For the ITPA enzyme assay, we used ITPA assay buffer (100 mM Tris-acetate, 50 mM Mg(OAc)2, 0.005% Tween-20, and 2 mM DTT, pH 7.5), His-tagged human recombinant ITPA protein (5 nM; ProSpec), and ITP (25 μM). For the DCTPP1 enzyme assay, we used DCTPP1 assay buffer (100 mM Tris-acetate, 100 mM NaCl, 10 mM Mg(OAc)2, 0.005% Tween-20, and 2 mM DTT, pH 7.5), His-tagged human recombinant DCTPP1 protein (50 nM; ATGen), and deoxycytidine triphosphate (dCTP; 50 μM).
To exclude false positive compounds that inhibit PPi detection, the effects of test compounds on 10 μM Na4P2O7-induced luciferase activity were examined.

[3] = Cell death assay (WST-8) in HeLa cells; assay type: cell-based, human; conditions: human, HeLa cells (cervical cancer); 72 h, WST-8; read-out: cytotoxicity IC50 against HeLa cells
Method: as §1, §2

[4] = molecular target: T2, His-tagged human recombinant MTH1 protein (Homo sapiens, UniProt P36639); experiment: MTH1 enzyme assay (PPiLight pyrophosphate detection); assay type: biochemical; conditions: MTH1 2 nM
T2 construct: His; purchased ProSpec
Method: An MTH1 enzyme assay was performed as described previously with minor modifications. Briefly, test compounds were dissolved in an assay buffer [100 mM Tris-acetate, 40 mM NaCl, 10 mM Mg(OAc)2, 0.005% Tween-20, and 2 mM dithiothreitol (DTT), pH 7.5] containing His-tagged human recombinant MTH1 protein (2 nM; ProSpec). […] Relative MTH1 activity was measured by monitoring the pyrophosphate (PPi) generated through MTH1-catalyzed nucleotide triphosphate hydrolysis. The luciferase-mediated luminescence signal was recorded for 30 min using a luminometer (Molecular Devices).

[5] = tested on: nuclear 53BP1 foci in HeLa cells; experiment: 53BP1 foci immunofluorescence (DNA damage); assay type: cell-based, human; conditions: 24 h, only at the higher concentrations (100-300 μM)
Method: For 53BP1, test compound–treated HeLa cells were fixed in 3% formalin in PBS containing 0.1% Triton X-100 for 15 min and permeabilized in 0.5% Triton X-100 for 5 min. After blocking with 10% FBS and 0.1% Triton X-100 in PBS for 1 h, cells were incubated sequentially with a primary antibody against 53BP1 (1:600, sc-22760; Santa Cruz Biotechnology) in blocking solution at 37 °C for 1 h and with Alexa Fluor 568-conjugated secondary antibody (1:400, Life Technologies) under the same condition.
After a quick rinse in PBS, DNA was counterstained with 0.5 µg/mL Hoechst 33342 (Sigma-Aldrich) in PBS at room temperature for 10 min. Images were analyzed on a fluorescence microscope (Delta Vision). […]

[6] = tested on: 8-oxo-dG levels in DNA of HeLa cells; experiment: 8-oxo-dG immunofluorescence; assay type: cell-based, human; conditions: 20 h, NPD compounds 100 μM, TH287 3 and 10 μM
Method: as §1, with “CO2. […]” for “CO2.”
The HeLa cells were seeded on glass coverslips in 12-well plates, cultured overnight, and treated with test compounds for the indicated time. For 8-oxo-dG, cells were fixed sequentially in 3.7% formalin for 10 min and methanol at -20 °C for 10 min, and then permeabilized in 0.5% Triton X-100 in PBS at room temperature for 5 min. After blocking with 0.5% BSA in PBS at room temperature for 30 min, cells were incubated sequentially with a primary antibody against 8-oxo-dG (5 µg/mL, MOG-020; Japan Institute for the Control of Aging) and with Alexa Fluor 488-conjugated secondary antibody (1:400, Life Technologies) under the same conditions. After a quick rinse in PBS, DNA was counterstained with 0.1 µg/mL 4′,6-diamidino-2-phenylindole (DAPI) in PBS at room temperature for 10 min. Images were analyzed with a fluorescence microscope (BX60, Olympus).

[7] = tested on: Bcl-2 phosphorylation in HeLa cells; experiment: Detection of phosphorylated Bcl-2 (western blot); assay type: cell-based, human; conditions: 24 h, at the effective concentrations
Method: Western blot analysis for detection of phosphorylated Bcl-2 was performed as described previously with several modifications. Briefly, HeLa cells were treated with test compounds for 24 h, then harvested and lysed by sonication in a radioimmunoprecipitation assay buffer (RIPA) buffer containing 25 mM 4-(2-hydroxyethyl)-1-piperazineethanesulfonic acid (HEPES; pH 7.8), 0.5 M NaCl, 5 mM ethylenediaminetetraacetic acid (EDTA), 1.5% Triton-X-100, 1.0% sodium deoxycholate, and 0.1% sodium dodecyl sulfate (SDS), supplemented with a protease inhibitor cocktail (Roche). Samples were subjected to SDS-PAGE and transferred to a PVDF membrane. The membrane was incubated with a primary antibody against Bcl-2 (1:500, #M0887; DAKO) and a horseradish peroxidase-labeled secondary antibody (1:2000, 170-6516; Bio-Rad) in sequence. Then, they were visualized with Fusion Solo S using the SuperSignal West Pico Chemiluminescence Substrate. Phosphorylated Bcl-2 was detected on the upper side of unphosphorylated Bcl-2 by the mobility shift. As a loading control, α-tubulin was detected in the same samples by using a primary antibody against α-tubulin (1:2000, T9026; Sigma-Aldrich).

HeLa cells [8] = experiment: Cell cycle analysis (propidium iodide flow cytometry); assay type: cell-based, human; conditions: 24 h
Method: The HeLa cells were seeded in 12-well plates and treated with test compounds for the indicated time. Cells were harvested, washed with PBS, and incubated in propidium iodide (PI) solution containing 50 µg/mL propidium iodide, 0.1% sodium citrate, 0.2% Nonidet P-40, and 0.25 µg/mL RNase A (Nacalai Tesque) for 30 mi n in the dark.
Cellular DNA content was analyzed by fluorescence-activated cell sorting using a Cytomics FC500 (Beckman Coulter). […]

[9] = tested on: other members of the Nudix protein family, nucleoside triphosphate pyrophosphatases; design: method as in PMID 24695224; conditions: cited from earlier work
[10] = tested on: intracellular microtubule networks in HeLa cells; experiment: alpha-tubulin immunofluorescence (interphase microtubules); assay type: cell-based, human; conditions: 6 h, at cytotoxic concentrations
Method: For α-tubulin, immunofluorescence was performed as described previously with several modifications2. Briefly, test compound–treated HeLa cells were fixed in 3.7% formalin for 1 min and methanol at -20 °C for 5 min sequentially, and permeabilized in 0.5% Triton X-100 in PBS for 5 min. After blocking with 0.5% BSA in PBS at room temperature for 30 min, cells were incubated sequentially with a primary antibody against α-tubulin (1:200, T9026; Sigma-Aldrich) in the blocking solution at 37 °C for 1 h, and with Alexa Fluor 488-conjugated secondary antibody (1:400, Life Technologies) at 37 °C for 40 min. After a quick rinse in PBS, DNA was counterstained with 0.5 µg/mL Hoechst 33342 in PBS at room temperature for 10 min. Images were analyzed using a fluorescence microscope (Delta Vision). […]
2 Futamura, Y. et al. Morphobase, an encyclopedic cell morphology database, and […]

porcine tubulin = molecular target: T3, porcine tubulin (Sus scrofa, UniProt P02550+P02554); experiment: In vitro tubulin polymerization assay; assay type: biochemical; conditions: dose-dependent
T3 construct: purchased Cytoskeleton
Method: In vitro tubulin polymerization assay was performed using a tubulin polymerization assay kit (Cytoskeleton) according to the manufacturer’s instructions. Briefly, lyophilized porcine tubulin was solubilized to a final concentration of 2 mg/mL in reaction buffer containing 80 mM piperazine-N,N′-bis(2-ethanesulfonic acid) (PIPES; pH 6.9), 2 mM MgCl2, 0.5 mM ethylene glycol tetraacetic acid (EGTA), 1 mM guanosine-5′-triphosphate (GTP), 10 μM fluorescent reporter, and 20% glycerol, and kept at 4 °C. Compounds (100 × DMSO stock solutions) were added to prewarmed half-area 96-well black plates. Cold tubulin solution was added to the wells. The plate contents were mixed by shaking, and fluorescence (Ex 350 nm, Em 435 nm) was read every minute for 1 h using a fluorescence microplate reader (Molecular Devices).

[11] = tested on: patient-derived malignant melanoma cells; design: method as in PMID 24695224; conditions: cited from earlier work
[12] = tested on: 87 enzymes, GPCRs, kinases, ion channels, and transporters; design: method as in PMID 24695224; conditions: at 10 μM; with few exceptions; cited from earlier work
[13] = substrate 2-OH-dATP (8.3 μM), read-out: IC50 of MTH1 inhibitory activity, 2-OH-dATP
[14] = substrate 8-oxo-dGTP (13.2 μM), read-out: IC50 of MTH1 inhibitory activity, 8-oxo-dGTP

T3 sequence (P02550 whole entry): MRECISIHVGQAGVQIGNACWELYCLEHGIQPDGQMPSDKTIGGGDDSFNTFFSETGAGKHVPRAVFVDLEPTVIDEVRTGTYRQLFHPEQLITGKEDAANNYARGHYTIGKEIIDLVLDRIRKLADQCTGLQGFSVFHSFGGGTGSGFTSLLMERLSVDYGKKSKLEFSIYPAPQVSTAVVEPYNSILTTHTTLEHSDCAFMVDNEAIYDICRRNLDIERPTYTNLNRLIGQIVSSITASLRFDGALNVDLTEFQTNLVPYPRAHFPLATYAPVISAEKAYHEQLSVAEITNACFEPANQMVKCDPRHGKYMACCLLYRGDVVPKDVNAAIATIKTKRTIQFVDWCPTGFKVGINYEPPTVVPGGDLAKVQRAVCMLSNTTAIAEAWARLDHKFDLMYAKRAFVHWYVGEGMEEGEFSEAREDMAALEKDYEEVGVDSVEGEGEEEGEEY
T3 sequence (P02554 whole entry): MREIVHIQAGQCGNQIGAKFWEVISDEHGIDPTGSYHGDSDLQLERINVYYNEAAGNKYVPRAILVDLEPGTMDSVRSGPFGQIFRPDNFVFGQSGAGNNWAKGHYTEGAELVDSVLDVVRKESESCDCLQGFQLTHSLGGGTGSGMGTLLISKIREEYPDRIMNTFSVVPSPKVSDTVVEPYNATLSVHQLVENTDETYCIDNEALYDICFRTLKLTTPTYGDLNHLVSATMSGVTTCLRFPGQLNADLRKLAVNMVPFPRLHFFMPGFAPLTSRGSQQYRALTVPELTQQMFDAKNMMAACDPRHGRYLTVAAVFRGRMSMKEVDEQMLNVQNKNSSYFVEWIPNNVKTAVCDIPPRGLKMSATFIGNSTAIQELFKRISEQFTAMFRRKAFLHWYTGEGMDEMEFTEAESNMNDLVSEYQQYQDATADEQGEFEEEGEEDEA

Compound | IC50 [4, 13] [µM] | IC50 [4, 14] [µM] | effect on enzymatic activity of DCTPP1 [2] | Bcl-2 phosphorylation [7] | population of HeLa cells in G2/M phase (HeLa cells [8]) | inhibition of other Nudix family members and nucleoside triphosphate pyrophosphatases [9] | effect on intracellular microtubule networks [10] | effect on tubulin polymerization in vitro (porcine tubulin) | further results
C[C@H](Oc1cc(-c2cnn(C3CCNCC3)c2)cnc1N)c1c(Cl)ccc(F)c1Cl [(S)-crizotinib, reference compound] |  |  | slightly inhibited |  |  |  |  |  | IC50 (HeLa cells [1]; 72 h, WST-8, read-out: cytotoxicity IC50 against HeLa cells): 13 µM
CNc1cc(-c2cccc(Cl)c2Cl)nc(N)n1 [TH287, reference compound] | 0.0036 ± 0.0017 | 0.0022 ± 0.0003 |  | induced Bcl-2 phosphorylation | increased the population of HeLa cells in G2/M phase | did not inhibit | disrupted intracellular microtubule networks | inhibited tubulin polymerization | accumulation of 8-oxo-dG [6]: increased 8-oxo-dG levels
Nc1nc(NC2CC2)cc(-c2cccc(Cl)c2Cl)n1 [TH588] |  |  |  | induced Bcl-2 phosphorylation | increased the population of HeLa cells in G2/M phase | did not inhibit | disrupted intracellular microtubule networks | inhibited tubulin polymerization | tumor growth in mouse xenograft model [11]: suppressed tumor growth; effect against 87 enzymes, GPCRs, kinases, ion channels, and transporters [12]: little effect

Second part, led by results:

IC50 [4, 13] [µM] | IC50 [4, 14] [µM] | Compound | effect on enzymatic activity of DCTPP1 [2] | Bcl-2 phosphorylation [7] | population of HeLa cells in G2/M phase (HeLa cells [8]) | inhibition of other Nudix family members and nucleoside triphosphate pyrophosphatases [9] | effect on intracellular microtubule networks [10] | effect on tubulin polymerization in vitro (porcine tubulin) | further results
> 1000 | > 1000 | Cn1cnc2c(NCc3ccco3)ncnc21 [NPD8880] |  |  |  |  |  |  | IC50 at 72 h [3]: 650 µM; DNA damage (nuclear 53BP1 foci formation) [5]: induced DNA damage
6.7 | 3.3 | CC(C)OCCCNc1ncnc2[nH]cnc12 [NPD15095] |  |  |  |  |  |  | 
0.75 ± 0.4 | 0.32 ± 0.04 | COc1ccc2nc3c(c(C)nn3C)c(NCCOCCO)c2c1 [SCH51344, reference compound] | slightly inhibited |  |  |  |  |  | IC50 (HeLa cells [1]): 5.5 µM

Reference: PMC4876372 (Scientific Reports, 2016)
